In BindingDB's records for doi:10.7270/Q22Z140X (Burnham Center For Chemical Genomics, 2010):

molecular target: T1, NACHT, LRR and PYD domains-containing protein 1 (Homo sapiens, UniProt Q9C000); experiment: NALP1 inhibitors in yeast, dose response, luminescent (AID 488860)
T1 sequence (Q9C000 whole entry): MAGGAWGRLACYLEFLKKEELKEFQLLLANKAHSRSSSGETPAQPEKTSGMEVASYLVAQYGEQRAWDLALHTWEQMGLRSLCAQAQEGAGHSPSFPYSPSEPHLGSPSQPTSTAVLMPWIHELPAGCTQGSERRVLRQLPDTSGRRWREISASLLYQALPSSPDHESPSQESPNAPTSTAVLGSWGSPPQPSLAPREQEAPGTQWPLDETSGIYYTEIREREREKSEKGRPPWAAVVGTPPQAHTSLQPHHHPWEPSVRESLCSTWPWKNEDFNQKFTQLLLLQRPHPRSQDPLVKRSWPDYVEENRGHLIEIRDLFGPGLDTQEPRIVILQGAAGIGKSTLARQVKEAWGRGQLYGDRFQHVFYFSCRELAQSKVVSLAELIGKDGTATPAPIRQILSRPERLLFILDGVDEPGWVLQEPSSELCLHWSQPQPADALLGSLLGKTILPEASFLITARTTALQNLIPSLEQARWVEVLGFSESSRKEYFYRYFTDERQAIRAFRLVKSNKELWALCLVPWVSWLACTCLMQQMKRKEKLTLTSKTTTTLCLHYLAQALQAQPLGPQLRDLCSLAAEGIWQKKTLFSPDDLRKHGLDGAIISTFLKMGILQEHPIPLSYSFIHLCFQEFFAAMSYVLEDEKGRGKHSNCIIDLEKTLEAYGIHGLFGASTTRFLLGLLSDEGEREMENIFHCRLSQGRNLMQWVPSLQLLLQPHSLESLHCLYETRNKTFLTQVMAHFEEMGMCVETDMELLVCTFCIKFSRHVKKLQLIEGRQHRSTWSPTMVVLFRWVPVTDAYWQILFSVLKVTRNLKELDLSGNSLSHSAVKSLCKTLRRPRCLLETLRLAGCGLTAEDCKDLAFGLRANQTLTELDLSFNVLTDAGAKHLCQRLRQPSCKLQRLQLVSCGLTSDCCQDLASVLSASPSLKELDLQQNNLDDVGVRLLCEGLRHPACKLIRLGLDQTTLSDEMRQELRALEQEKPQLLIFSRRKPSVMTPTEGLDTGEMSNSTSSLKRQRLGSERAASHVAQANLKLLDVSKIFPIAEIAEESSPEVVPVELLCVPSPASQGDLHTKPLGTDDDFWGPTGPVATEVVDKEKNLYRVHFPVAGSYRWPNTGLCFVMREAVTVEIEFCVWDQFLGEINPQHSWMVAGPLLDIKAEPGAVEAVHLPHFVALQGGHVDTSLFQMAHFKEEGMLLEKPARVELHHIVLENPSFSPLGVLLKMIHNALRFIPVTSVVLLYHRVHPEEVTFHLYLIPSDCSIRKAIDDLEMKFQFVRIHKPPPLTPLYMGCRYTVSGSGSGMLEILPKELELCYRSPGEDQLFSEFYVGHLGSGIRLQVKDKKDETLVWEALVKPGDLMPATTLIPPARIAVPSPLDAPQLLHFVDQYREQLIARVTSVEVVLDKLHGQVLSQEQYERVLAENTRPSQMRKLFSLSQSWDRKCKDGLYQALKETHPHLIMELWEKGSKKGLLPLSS

Row | Structure (SMILES) | IC50 [µM]
1 | Oc1cc(Sc2nnnn2-c2ccccc2)c(O)n1-c1cccc(Cl)c1 | 5.83
2 | COc1ccccc1-n1c(O)c2c(c1O)CC(c1ccccc1)CC2 (stereo not drawn) | > 100
3 | Cc1ccc(-n2c(O)cc(Sc3ccccc3C(=O)O)c2O)cc1 | 34.4
